Measurements: US12268901B2, “Targeting cell tropism receptors to inhibit cytomegalovirus infection” (priority 2017, dated 2025)
Entries after “also recorded” stand apart in the source; their conditions may differ.

Tests used:
Type in all cases: cell-based, Human cytomegalovirus (HCMV)
[1] = test system: HCMV infection of HEL fibroblasts; assay: Peptide blocking assay, infection of HEL fibroblasts (percent IE positive cells); conditions: peptide 1 100 μg/ml, MOI=2.0
Experimental: FIG. 9. […] TB40E-GFP encoding the viral PC or AD169 lacking PC were preincubated with peptide 1 (100 μg/ml) and then infected on ARPE19 epithelial cells or HEL fibroblasts (MOI=2.0). Cells were fixed, permeabilized, stained for DNA, immunostained for anti-immediate early protein (IE) and imaged. […] Values indicate the mean percentage of infected cells of n=3 experiments±SD. **p<0.01; ***p<0.001.
Live cell images: Phase and GFP signal images were captured on a Zeiss microscope (Zeiss AxioObserver Z1) at 10× magnification. Fixed cell images: cells were washed with PBS (Life Technologies) and fixed with 4% formalin in PBS (Sigma). DNA was stained with Hoechst 33342 dye (Life Technologies). The fixed cells were imaged using an Image Xpress Micro (IXM, Molecular Devices) at 4× magnification. Images were analyzed with MetaXpress imaging software (Molecular Devices) to determine the total cells per well and the percentage of infected cells (GFP positive) in each well. For IE immunostaining: fixed cells were permeabilized with 0.2% Triton X-100 (Sigma) in PBS. Blocking was performed with 1% BSA (Calbiochem, 2930) in PBS with 0.3M glycine (Sigma). Cells were then incubated in antibody targeting the major IE proteins (IE, EMD Millipore, MAB8131) diluted in 1% BSA in PBS. […]

[2] = test system: TB40E virus infection of epithelial cell lines; assay: Peptide blocking assay, infection of several epithelial cell lines (percent GFP positive cells); conditions: Peptide 1 100 μg/ml, MOI=2.0, 2 dpi
Experimental: FIG. 10. […] Peptide 1 (100 μg/ml), or DMSO alone was preincubated with TB40E virus, followed by infection of the indicated epithelial cell lines (MOI=2.0). Cells were fixed and imaged for GFP and DNA at 2 dpi. […] Values indicate the mean percentage of infected cells of three experiments±SD. **p<0.01; ***p<0.001.
The noted synthetic peptides (100 ug/ml each or as described) were mixed with TB40E-GFP virus (1.2×10^6 PFU) and incubated at 37° C. for 2 h by rocking. The resulting samples were then subjected to the virus binding or infection assay.

[3] = test system: HCMV TB40E-GFP replication in ARPE19 cells; assay: Plaque assay of culture supernatants for infectious virus; conditions: peptide 1 100 μg/ml, ARPE19, MOI=2.0, supernatants at indicated dpi
Experimental: (A) Different amounts of peptide 1 were preincubated with TB40E-GFP virus and the mixture applied to ARPE19. Viral DNA levels were quantified by qPCR. (B) The results in (A) are presented as the relative amount of viral DNA relative to the DMSO control. (C) TB40E-GFP virus was preincubated with peptide 1 (100 μg/ml), or DMSO, followed by infection of ARPE19 cells (MOI=2.0). Cells were imaged for GFP expression at 2 dpi (D2) and 7 dpi (D7). (D) TB40E-GFP or BADrUL131-GFP virus, both expressing PC, were preincubated with peptide 1 (100 μg/ml), or DMSO prior to infection of ARPE19 cells (MOI=2.0). Cells were fixed and imaged for GFP at 2 dpi. All data represent the mean of n=3 experiments+/−SD. (E) Culture media supernatants from (C) were harvested on the indicated dpi and assayed for infectious virus by plaque assay. Values indicate the mean percent infected cells of 3 independent experiments±SD. ****p<0.0001.

[4] = test system: TB40E-GFP infection of ARPE19 cells; assay: cAMP/PKA signaling pathway modulation, TB40E-GFP infection; conditions: H-89 20 μM, SQ22536 150 μM, FSK 20 μM, 2 h prior to infection, MOI=4.0, 48 hpi
Experimental: (§1) FIGS. 7A-C. HCMV receptor engagement and cAMP/PKA signaling. ARPE19 or OR14I1 knock down cells were pretreated with phosphokinase A (PKA) inhibitor H-89 (20 μM), adenylate cyclase antagonist, SQ22536 (150 μM), or adenylate cyclase activator, forskolin (FSK; 20 μM) for 2 h prior to TB40E-GFP infection (MOI=4.0). Cells were fixed at 48 hpi and images taken.
H-89, SQ22536 and Foskolin were purchased from Sigma-Aldrich Chemicals. Wild type ARPE19 or ARPE19 cells expressing the indicated shRNAs were treated with protein kinase A (PKA) inhibitor H-89 (20 μM), adenylate cyclase antagonist, SQ22536 (150 μM), or adenylate cyclase activator, forskolin (FSK; 20 μM) for 2 h prior to infection with TB40E-GFP (MOI=2.0). After 2 h, the medium was then replaced by the standard medium that also contained the noted small molecules. Images were taken at 2 dpi.
as §1, with “HCMV” for “FIGS. 7A-C. HCMV”, “signaling was also evaluated.” for “signaling.”, “(MOI=4.0).” for “(MOI=4.0). Cells were fixed at 48 hpi and images taken.”

MDNLTKVTEFLLMEFSGIWELQVLHA (N-terminal fragment of OR14I1) [Peptide 1, synthetic peptide representing the N-terminus of OR14I1, position 1-26]
PC+ HCMV infection of fibroblasts [1]: modest effect | PC+ virus infection of multiple epithelial cell lines (percent GFP positive cells) [2]: prevented PC+ virus infection; also recorded: inhibits HCMV infection of several epithelial cell lines | long-term replication of HCMV (infectious virus by plaque assay) [3]: compromised the long-term replication of HCMV | infectivity of TB40E-GFP in ARPE19 epithelial cells [4]: reduced infectivity significantly
